From patent EP0563386A1, “ANTICANCER COMPOSITION AND COMPOUND” (NIPPON SHINYAKU COMPANY, LIMITED, priority 1990, dated 1992) come the findings set out here.

Structures are written as SMILES.

One test concerns Meth A fibrosarcoma. The experiment in a line: Meth A fibrosarcoma tumor volume in mice (Test Example 2). The class given is in vivo, BALB/c mice. The conditions noted are these: Test (2): start tumor volume 160-180 mm³; irsogladine maleate 10 mg/kg or 5-fluorouracil 30 mg/kg orally; Fig. 2. How it is done: • (1) The homologus tumor Meth A fibrosarcoma subcultured (ascites type) in BALB/c mice, 5 x 10^5 cells, was transplanted subcutaneously at the flank of 6-week-old male BALB/c mice. Mice having a tumor volume of 70-100 mm³ were selected and divided into groups of 9. Oral single daily administration of the test compound was started and the body weight and tumor volume were serially determined. The volume was determined using the same calculation formula as shown in Test Example 1. The compound of the invention irsogladine maleate, 10 mg/kg, suspended in 0.5% methylcellulose maleate and 5-fluorouracil, 15 mg/kg, dissolved in 0.5% methylcellulose solution were respectively administered orally. The control group received 0.5% methylcellulose solution orally. […] The effect of the com pound of this invention as an anticancer agent is, thus, clear. • (2) As in the above test, mice having a tumor volume of 160-180 mm³ were selected and subjected to the same test as above. The compound of this invention irsogladine maleate, 10 mg/kg, 5-flurorouracil, 30 mg/kg, or as a combination therapy, irsogladine maleate, 10 mg/kg, plus 5-fluorouracil, 30 mg/kg, were administered orally. The control group received the same control material as in the above test orally. […] The anticancer adjuvant activity of the compound of this invention to 5-FU is clear.
The open circle stands for control, the open triangle for 5-FU and the closed circle for the compound of the invention. The tumor volume (mm³) is plotted on the vertical axis and the number of days after drug administration on the horizontal axis.
The open circle stands for control, the open triangle for F-5U, the closed circle for the compound of the invention, the open square for the combination therapy. The tumor volume (mm³) is plotted on the vertical axis and the number of days after drug administration on the horizontal axis.

The test system of test [1] is Colon 26 tumor cells. Kind of test: Colon 26 percent tumor inhibition, alone and combined with 5-FU derivatives (Test Example 3). It counts as in vivo, BALB/c mice. The conditions noted are these: Test (2): 21 days. How it is done: The additive effect of 5-FU derivative and the compound of this invention was tested in terms of percent tumor inhibition. Colon 26 tumor cells were transplanted subcutaneously to groups of 8 BALB/c mice and the treatment was instituted when the tumor volume amounted to about 50-100 mm³. Each of the test com pound was suspended in 0.5% methylcellulose and admin istered orally in a dose of 10 mg/kg once daily for 14 days in (1) and for 21 days in (2) and (3). As 5-FU derivatives Mifurol™, Furtulon™ and Sunfural™ were used, and all the drugs were administered orally in a dose of 30mg/kg, or 90 mg/kg as total dose of three drugs. The combination group received these 5-FU derivatives concurrently with the test drug. The single drug group received each test compound alone orally.

In test [2] the test system is Colon 26 tumor cells. Kind of test: Colon 26 life-prolonging effect / survival (Test Example 5). It counts as in vivo, BALB/c mice. The conditions noted are these: Test (2): groups of six; 10 mg/kg orally once daily; eighty percent of control group died on day 63; Fig. 4. The procedure: Furthermore, in the assay of growth inhibitory activity against Colon 26, the life-prolonging effect can be evaluated from the mortality of animals during a period of 4 to 6 weeks after administration.
• (1) Colon 26 tumor cells were transplanted subcutane ously in groups of six BALB/c mice and the treatment was instituted when the tumor volume amounted to about 100 - 200 mm³. The test drug suspended in 0.5% methyl cellulose was administered orally in a dose of 10 mg/kg once daily during the test period. All animals in the control group (no test drug was contained at all) died on day 34 and all animals given 5-FU derivative died on day 40, whereas none of the animals given the compound of this invention (compound No. 169) died even after day 40. The life-prolonging effect of the compound of this invention is clear. • (2) As in the above (1), Colon 26 tumor cells were transplanted subcutaneously in groups of six BALB/c mice and treatment was instituted when the tumor volume amounted to about 100-200 mm³. The test drug suspended in 0.5% methylcellulose was administered orally in a dose of 10 mg/kg once daily during the test period.
The open circle stands for control, the open square for the F-5U derivative group and the closed square for the group given the compound of this invention. The survival rate (%) is plotted on the vertical axis and the number of days after drug administration on the horizontal axis.
The open circle stands for the control group, the open square for Compound No. 175 group, the closed circle for Compound No. 210 group, the open triangle for Compound No. 213 group and the closed square for Compound 219 group. The survival rate (%) is plotted on the vertical axis and the number of days after drug administration on the horizontal axis.

A further test concerns MDCK cells. The experiment in a line: Inhibition of uptake of 5-FU in MDCK cells (Test Example 4). The class given is cell-based. The conditions noted are these: Canis lupus familiaris, 3H-5FU uptake versus control, harvest time (1, 3 or 5 hours) not given. How it is done:
In the assay of inhibitory activity against the 5-FU uptake of MDCK cells, the anticancer adjuvant activity of the test compound can be estimated based on the inhibitory effect on the uptake of a known anticancer drug.
The inhibitory effect of the compound of this invention on the uptake of 5-FU in MDCK cells was investigated. MDCK cells were seeded on a 24-well culture plate. When the cells became confluent, the test compound (10⁻⁶ - 10⁻⁴ M) and 3H-5FU ([…]) were simultaneously added to the medium and 1, 3 and 5 hours later, cells were harvested to determine the amount of 3H-5FU taken up with a liquid scintillation counter. The percent inhibition to control was calculated.

The subject of test [3] is WiDr (human colon cancer). Kind of test: Tumor growth inhibition, WiDr implant in nude mice (Test Example 1). Conditions: implant volume on day 18 after transplantation divided by volume at transplantation; irsogladine maleate 10 mg/kg orally once daily from day 14; cyclophosphamide 150 mg/kg intraperitoneally once on day 14; groups of 10. It counts as in vivo, BALB/c nude mice. How it is done: WiDr (human colon cancer) cells subcultured in BALB/c nude mice were dissected to prepare cubes, about 2 mm³ each. These cubes were transplanted subaxillarily into separate BALB/c nude mice using a transplantation needle. The animals were divided into groups of 10 individuals on day 10 after transplantation and the body weight and the diameter of the implant were serially determined. As the compound of this invention, irsogladine maleate, 10 mg/kg, was suspended in 0.5% methylcellulose solution and administered orally once daily beginning day 14 after transplantation. Cyclophosphamide, 150 mg/kg, was dissolved in PBS and administered intraperitoneally once on day 14 after transplantation. The control group received 0.5% methylcellulose solution orally once daily beginning day 14 after transplantation.
The volume of the implant on day 18 after transplantation was divided by the volume at trans plantation. […]
The effect of the compound of this invention as an anticancer agent is clear.

As a reminder, the inhibition is the percentage by which the read-out fell short of the control. Higher therefore signals a response far below the control.

For the compound `O=c1[nH]cc(F)c(=O)[nH]1` [5-FU, 5-fluorouracil, reference compound], the “tumor-inhibitory effect, single drug” value in the test on Meth A fibrosarcoma is given as “tumor-inhibitory effect”.
In the case of `Nc1nc(N)nc(-c2ccc(Br)c(Cl)c2)n1` [Compound No. 219, 2,4-Diamino-6-(4-bromo-3-chlorophenyl)-1,3,5-triazine], in the test with Colon 26 tumor cells [1] (test compound 10 mg/kg orally once daily concurrently with 5-FU derivatives (90 mg/kg total)), the “% Inhibition, Combination” value was 75.5%. In addition, the “% Inhibition, Single drug” value in the test with Colon 26 tumor cells [1] (test compound 10 mg/kg orally once daily, 5-FU derivatives 30 mg/kg each (90 mg/kg total) orally) is on record as 10.0%. The life-prolonging effect entry with Colon 26 tumor cells [2] was “definite life-prolonging effect”. The inhibition at 100 µM with MDCK cells (10⁻⁴ M) turned out to be 60%. In the test with MDCK cells (10⁻⁵ M), the inhibition at 10 µM was 69%. This compound also came in with an inhibition at 1 µM in the test with MDCK cells (10⁻⁶ M) of 86%.
`O=P1(N(CCCl)CCCl)NCCCO1` (centres unmarked) [Cyclophosphamide, reference compound]: the Tumor volume ratio in test [3] was determined as 1.52 ± 0.06.
